Experimental data: patent US6627664B2, “Perylenequinones for use as sonosensitizers” (Altachem Pharma Ltd., priority 2001, dated 2003)
Read-outs that look alike come from different tables or passages of the source. Marks after values point to notes of the source that are not given here.

Columns and labels:
[1] = test system: cells; conditions: for Photopotentiation Factor: LD50 dark divided by LD50 light; for LD50 Light: light dose not fixed, 0.75-1.0 J/cm2 of 630 nm light
Source text: As used herein, “photopotentiation factor” refers to the property of the compound(s) to exert light- or sound-mediated toxicity in excess of its (their) inherent unactivated toxicity. […] Where the term “LD50” has been used above, the term “IC50” may be substituted, to address the bioassays that concern metabolic activity rather than the endpoint of lethality, loss of reproductive capability, or clonogenic death. The relative photoactivation efficiency of a compound may also be determined using a clonogenic assay, an assay that is well known to those skilled in the art.
In accordance with the present invention, a desirable PQP derivative is one that is non-toxic (or of low toxicity) at high drug concentrations without activation, i.e., without light (also referred to as “dark”), and/or without sound, and is toxic at low concentrations when light of the appropriate wavelength, or sound of the appropriate frequency, is applied. As is recognized by those skilled in the art, the most desirable compounds are those that provide a wide range of non-toxic doses in an unactivated state, as this characteristic provides an increased safety factor for the patient.

[2] = Singlet oxygen (1O2) yield; assay type: physicochemical
[3] = Light absorption properties (red spectral region, 630 nm); assay type: physicochemical; conditions: for A630: absorbance at 630 nm
[4] = test system: HL-60 cells; test: Sonodynamic toxicity (insonation, surviving fraction); assay type: cell-based, human
Experimental: Sonodynamic toxicity of two perylenequinone derivatives in human promyelocytic leukemia cells in vitro, with respect to a positive control, hematoporphyrin at 1 mM.
HL-60 cells were treated with perylenequinone sensitizers and insonated as described above. The surviving fractions were plotted against sensitizer concentration. […] Cell survival decreased steeply over the next two decades of sensitizer concentration.

[5] = test system: sarcoma 180 cells; conditions: cited from earlier work
[6] = Pharmacokinetics / tissue uptake of 14C-HB in tumor-bearing mice; assay type: in vivo, Balb/c mice
Source text: The excellent fluorescence properties of the hypocrellins and derivatives provide a valuable tool to monitor intracellular uptake and distribution kinetics by confocal laser scanning microscopy (CLSM). Each drug has unique properties of uptake and distribution (Miller et al 1995 a, b). The rate cells take up drug in humans […] can be determined using similar protocols as Liu et al 1995 and Miller et al., 1995 a or b). In vivo, the ideal time between i.v. injection or administration of the drug and light administration is preferably when tumor concentration of the photodynamic agent is optimal with respect to normal tissues, typically up to about 24 hours, but as long as 48 hours or more (Table 2).
Pharmacokinetics of ^14C-HB in Balb/c mice bearing the EMT6/Ed tumor in one flank. […] With respect to skin, the optimal therapeutic ratio for tumor occurs 2 hours following drug administration.

2-(N,N-diethyl-amino) ethylamine-HB [HBDD-R2]
Photopotentiation Factor [1]: >3.3
LD50 Light [1]: 7.5 µM
^1O2 Yield [2]: 0.36

2-(N,N-dimethyl-amino) propylamine-HB [HBDP-R1]
toxicity (in words) [1]: average or lower than average toxicity
Photopotentiation Factor [1]: >16.6-50
LD50 Light [1]: 0.5 to 1.5 µM
LD50 Dark ([1]; without light): >25 µM
^1O2 Yield [2]: 0.42

2-morpholino-ethyl-aminated-HB [HBAM-R1]
LD50 Dark [1]: >25 µM
Photopotentiation Factor [1]: >6.25
LD50 Light [1]: 4 µM
Abs. Peak in red Spectral region [3]: 658 nm
^1O2 Yield [2]: 0.70

5,8-dibromo-HB [DBHB]
LD50 Dark [1]: 10 µM
Photopotentiation Factor [1]: 3.3
LD50 Light [1]: 3 µM
^1O2 Yield [2]: 0.62
maximum sonotoxic effect ([4]; 100 μM to 1000 μM, versus 1000 μM Hp control): comparable to that of the Hp control
sonotoxicity ([4]; up to 100 μM): negligible sonotoxicity

COc1cccc2c1C(=O)c1c(O)c3c(c(O)c1C2=O)CC(O)(C(=O)COC(=O)CCCCCC(=O)O)CC3OC1OC(C)C(O)C(O)C1F (stereo not shown) [FAD 104, 3′-deamino-2′-fluoro-3′-hydroxydoxorubicin-14-pimelate]
rate of ultrasound-induced cell damage ([5]; 80 μM, insonated, versus ultrasound alone): doubled
cell damage with compound alone ([5]; no ultrasound): no cell damage

Cystamine-HB [HBAC-R1]
Photopotentiation Factor [1]: 12.5
LD50 Light [1]: 1 µM
LD50 Dark ([1]; without light): 12.5 µM
Abs. Peak in red Spectral region [3]: 646 nm
Extinction Coefficient (× 10^−3) (630 nm) [3]: 3.88 × 10^−3
A630 [3]: 0.388
Amax/solvent ([3]; solvent CHCl3): 0.417/CHCl3
^1O2 Yield [2]: 0.40

Cystamine-HB [HBAC-R2]
Photopotentiation Factor [1]: 2.5
LD50 Light [1]: 5 µM
LD50 Dark ([1]; without light): 12.5 µM
Abs. Peak in red Spectral region [3]: 600 nm
Extinction Coefficient (× 10^−3) (630 nm) [3]: 2.44 × 10^−3
A630 [3]: 0.244
Amax/solvent ([3]; solvent DMSO): 0.337/DMSO
^1O2 Yield [2]: 0.31

Deacetylated-HA [DAHA]
LD50 Dark [1]: >25 µM
LD50 Light [1]: >5 µM
Abs. Peak in red Spectral region [3]: 622 nm
Extinction Coefficient (× 10^−3) (630 nm) [3]: 5.70 × 10^−3
A630 [3]: 0.570
^1O2 Yield [2]: 0.51

Ethanolamine-HB [HBEA-R2]
Photopotentiation Factor [1]: 3.3
LD50 Light [1]: 7.5 µM
LD50 Dark ([1]; without light): 25 µM
^1O2 Yield [2]: 0.70

Ethylenediamine-HB [HBED-R2]
Photopotentiation Factor [1]: 5-8.3
LD50 Light [1]: 3 to 5 µM

HA-Mg^++(Ac2)
LD50 Dark [1]: >25 µM
LD50 Light [1]: >5 µM
Abs. Peak in red Spectral region [3]: 616 nm
Extinction Coefficient (× 10^−3) (630 nm) [3]: 4.47 × 10^−3
A630 [3]: 0.447
Amax/solvent ([3]; solvent EtOH): 0.958/EtOH
^1O2 Yield [2]: 0.71

HB-Mg^++
LD50 Dark [1]: 10 µM
Photopotentiation Factor [1]: 10
LD50 Light [1]: 1 µM
Abs. Peak in red Spectral region [3]: 622 nm
Extinction Coefficient (× 10^−3) (630 nm) [3]: 5.27 × 10^−3
A630 [3]: 0.527
Amax/solvent ([3]; solvent EtOH): 0.604/EtOH
^1O2 Yield [2]: 0.53

Hypocrellin A [HA, reference compound]
Photopotentiation Factor [1]: 3-5
LD50 Light [1]: 3 to 5 µM
LD50 Dark ([1]; without light): 15 µM
Abs. Peak in red Spectral region [3]: 658* nm
Extinction Coefficient (× 10^−3) (630 nm) [3]: 0.86 × 10^−3
A630 [3]: 0.086
Amax/solvent ([3]; solvent DMF): 0.093/DMF
^1O2 Yield [2]: 0.84

Methylamine-HB [HBMA-IV]
Photopotentiation Factor [1]: 8.5
LD50 Light [1]: 1 µM

^14C-Hypocrellin B
clearance from blood ([6]; Balb/c mice bearing EMT6/Ed tumor): rapid clearance
Tissue Uptake of ^14C-Hypocrellin B ([6]; Bone, 0 Hours): 19,825 ± 2,300 dpm/g
Tissue Uptake of ^14C-Hypocrellin B ([6]; Bone, 2 Hours): 3,955 ± 2,070 dpm/g
Tissue Uptake of ^14C-Hypocrellin B ([6]; Bone, 24 Hours): 660 ± 215 dpm/g
Tissue Uptake of ^14C-Hypocrellin B ([6]; Bone, 48 Hours): 1,125 ± 310 dpm/g
Tissue Uptake of ^14C-Hypocrellin B ([6]; Brain, 0 Hours): 17,560 ± 560 dpm/g
Tissue Uptake of ^14C-Hypocrellin B ([6]; Brain, 2 Hours): 3,855 ± 170 dpm/g
Tissue Uptake of ^14C-Hypocrellin B ([6]; Brain, 24 Hours): 2,840 ± 275 dpm/g
Tissue Uptake of ^14C-Hypocrellin B ([6]; Brain, 48 Hours): 845 ± 90 dpm/g
Tissue Uptake of ^14C-Hypocrellin B ([6]; Fat, 0 Hours): 20,550 ± 715 dpm/g
Tissue Uptake of ^14C-Hypocrellin B ([6]; Fat, 2 Hours): 38,570 ± 5,610 dpm/g
Tissue Uptake of ^14C-Hypocrellin B ([6]; Fat, 24 Hours): 19,550 ± 2,210 dpm/g
Tissue Uptake of ^14C-Hypocrellin B ([6]; Fat, 48 Hours): 19,335 ± 2,335 dpm/g
Tissue Uptake of ^14C-Hypocrellin B ([6]; Heart, 0 Hours): 113,920 ± 3,365 dpm/g
Tissue Uptake of ^14C-Hypocrellin B ([6]; Heart, 2 Hours): 5,135 ± 910 dpm/g
Tissue Uptake of ^14C-Hypocrellin B ([6]; Heart, 24 Hours): 7,835 ± 1,810 dpm/g
Tissue Uptake of ^14C-Hypocrellin B ([6]; Heart, 48 Hours): 2,325 ± 245 dpm/g
Tissue Uptake of ^14C-Hypocrellin B ([6]; Ileum, 0 Hours): 45,400 ± 3,600 dpm/g
Tissue Uptake of ^14C-Hypocrellin B ([6]; Ileum, 2 Hours): 20,280 ± 2,850 dpm/g
Tissue Uptake of ^14C-Hypocrellin B ([6]; Ileum, 24 Hours): 5,800 ± 645 dpm/g
Tissue Uptake of ^14C-Hypocrellin B ([6]; Ileum, 48 Hours): 2,840 ± 595 dpm/g
Tissue Uptake of ^14C-Hypocrellin B ([6]; Kidney, 0 Hours): 67,344 ± 950 dpm/g
Tissue Uptake of ^14C-Hypocrellin B ([6]; Kidney, 2 Hours): 20,855 ± 3,955 dpm/g
Tissue Uptake of ^14C-Hypocrellin B ([6]; Kidney, 24 Hours): 12,050 ± 1,845 dpm/g
Tissue Uptake of ^14C-Hypocrellin B ([6]; Kidney, 48 Hours): 4,535 ± 765 dpm/g
Tissue Uptake of ^14C-Hypocrellin B ([6]; Liver, 0 Hours): 394,190 ± 7,540 dpm/g
Tissue Uptake of ^14C-Hypocrellin B ([6]; Liver, 2 Hours): 24,620 ± 4,885 dpm/g
Tissue Uptake of ^14C-Hypocrellin B ([6]; Liver, 24 Hours): 22,495 ± 4,440 dpm/g
Tissue Uptake of ^14C-Hypocrellin B ([6]; Liver, 48 Hours): 9,215 ± 720 dpm/g
Tissue Uptake of ^14C-Hypocrellin B ([6]; Lung, 0 Hours): 651,100 ± 42,668 dpm/g
Tissue Uptake of ^14C-Hypocrellin B ([6]; Lung, 2 Hours): 8,580 ± 655 dpm/g
Tissue Uptake of ^14C-Hypocrellin B ([6]; Lung, 24 Hours): 3870 ± 525 dpm/g
Tissue Uptake of ^14C-Hypocrellin B ([6]; Lung, 48 Hours): 2,975 ± 360 dpm/g
Tissue Uptake of ^14C-Hypocrellin B ([6]; Muscle, 0 Hours): 13,665 ± 600 dpm/g
Tissue Uptake of ^14C-Hypocrellin B ([6]; Muscle, 2 Hours): 4,050 ± 940 dpm/g
Tissue Uptake of ^14C-Hypocrellin B ([6]; Muscle, 24 Hours): 2,875 ± 560 dpm/g
Tissue Uptake of ^14C-Hypocrellin B ([6]; Muscle, 48 Hours): 1,015 ± 205 dpm/g
Tissue Uptake of ^14C-Hypocrellin B ([6]; Pancreas, 0 Hours): 32,010 ± 2,165 dpm/g
Tissue Uptake of ^14C-Hypocrellin B ([6]; Pancreas, 2 Hours): 13,185 ± 12,055 dpm/g
Tissue Uptake of ^14C-Hypocrellin B ([6]; Pancreas, 24 Hours): 32,390 ± 11,840 dpm/g
Tissue Uptake of ^14C-Hypocrellin B ([6]; Pancreas, 48 Hours): 16,915 ± 3,845 dpm/g
Tissue Uptake of ^14C-Hypocrellin B ([6]; Serum, 0 Hours): 69,975 ± 1,925 dpm/g
Tissue Uptake of ^14C-Hypocrellin B ([6]; Serum, 2 Hours): 1,655 ± 170 dpm/g
Tissue Uptake of ^14C-Hypocrellin B ([6]; Serum, 24 Hours): 1,020 ± 160 dpm/g
Tissue Uptake of ^14C-Hypocrellin B ([6]; Serum, 48 Hours): 700 ± 240 dpm/g
Tissue Uptake of ^14C-Hypocrellin B ([6]; Skin, 0 Hours): 14,970 ± 74 dpm/g
Tissue Uptake of ^14C-Hypocrellin B ([6]; Skin, 2 Hours): 3,130 ± 221 dpm/g
Tissue Uptake of ^14C-Hypocrellin B ([6]; Skin, 24 Hours): 2,700 ± 170 dpm/g
Tissue Uptake of ^14C-Hypocrellin B ([6]; Skin, 48 Hours): 1,590 ± 250 dpm/g
Tissue Uptake of ^14C-Hypocrellin B ([6]; Spleen, 0 Hours): 151,870 ± 9,395 dpm/g
Tissue Uptake of ^14C-Hypocrellin B ([6]; Spleen, 2 Hours): 58,900 ± 4,205 dpm/g
Tissue Uptake of ^14C-Hypocrellin B ([6]; Spleen, 24 Hours): 14,970 ± 3,215 dpm/g
Tissue Uptake of ^14C-Hypocrellin B ([6]; Spleen, 48 Hours): 26,700 ± 11,105 dpm/g
Tissue Uptake of ^14C-Hypocrellin B ([6]; Stomach, 0 Hours): 28,280 ± 145 dpm/g
Tissue Uptake of ^14C-Hypocrellin B ([6]; Stomach, 2 Hours): 21,630 ± 3,345 dpm/g
Tissue Uptake of ^14C-Hypocrellin B ([6]; Stomach, 24 Hours): 34,385 ± 8,795 dpm/g
Tissue Uptake of ^14C-Hypocrellin B ([6]; Stomach, 48 Hours): 12,460 ± 975 dpm/g
Tissue Uptake of ^14C-Hypocrellin B ([6]; Tumor, 0 Hours): 7,885 ± 270 dpm/g
Tissue Uptake of ^14C-Hypocrellin B ([6]; Tumor, 2 Hours): 3,775 ± 400 dpm/g
Tissue Uptake of ^14C-Hypocrellin B ([6]; Tumor, 24 Hours): 2,950 ± 80 dpm/g
Tissue Uptake of ^14C-Hypocrellin B ([6]; Tumor, 48 Hours): 2,165 ± 470 dpm/g
time of optimal therapeutic ratio for tumor with respect to skin ([6]; following drug administration): 2 h

n-butylaminated HB [HBBA-R2]
LD50 Dark [1]: >100 µM
Photopotentiation Factor [1]: 167-500
LD50 Light [1]: 0.2 to 0.6 µM
cell killing with light ([1]; wavelengths between at least 630 and 688 nm): capable of killing cells
Abs. Peak in red Spectral region [3]: 616* nm
Extinction Coefficient (× 10^−3) (630 nm) [3]: 6.19 × 10^−3
A630 [3]: 0.619
Amax/solvent ([3]; solvent CHCl3): 0.628/CHCl3
^1O2 Yield [2]: 0.32
